target: Non-receptor tyrosine-protein kinase TYK2 (Homo sapiens, UniProt P29597); experiment: TYK2 (TYK2/JAK2 PSTAT4 T-BLAST) Alpha Screen Assay
Method: IL-12 is known to transduce its signal through IL-12 receptor via Jak2 and/or Tyk2. For that reason, the activity against Tyk2/Jak2 was measured by determining the inhibition of IL-12 induced phosphorylation of STAT4 in T-blast cells. […] See, e.g., Sohn et al., J. Immunology (2013) 2205-2216.

Sequence of Non-receptor tyrosine-protein kinase TYK2 (P29597 whole entry): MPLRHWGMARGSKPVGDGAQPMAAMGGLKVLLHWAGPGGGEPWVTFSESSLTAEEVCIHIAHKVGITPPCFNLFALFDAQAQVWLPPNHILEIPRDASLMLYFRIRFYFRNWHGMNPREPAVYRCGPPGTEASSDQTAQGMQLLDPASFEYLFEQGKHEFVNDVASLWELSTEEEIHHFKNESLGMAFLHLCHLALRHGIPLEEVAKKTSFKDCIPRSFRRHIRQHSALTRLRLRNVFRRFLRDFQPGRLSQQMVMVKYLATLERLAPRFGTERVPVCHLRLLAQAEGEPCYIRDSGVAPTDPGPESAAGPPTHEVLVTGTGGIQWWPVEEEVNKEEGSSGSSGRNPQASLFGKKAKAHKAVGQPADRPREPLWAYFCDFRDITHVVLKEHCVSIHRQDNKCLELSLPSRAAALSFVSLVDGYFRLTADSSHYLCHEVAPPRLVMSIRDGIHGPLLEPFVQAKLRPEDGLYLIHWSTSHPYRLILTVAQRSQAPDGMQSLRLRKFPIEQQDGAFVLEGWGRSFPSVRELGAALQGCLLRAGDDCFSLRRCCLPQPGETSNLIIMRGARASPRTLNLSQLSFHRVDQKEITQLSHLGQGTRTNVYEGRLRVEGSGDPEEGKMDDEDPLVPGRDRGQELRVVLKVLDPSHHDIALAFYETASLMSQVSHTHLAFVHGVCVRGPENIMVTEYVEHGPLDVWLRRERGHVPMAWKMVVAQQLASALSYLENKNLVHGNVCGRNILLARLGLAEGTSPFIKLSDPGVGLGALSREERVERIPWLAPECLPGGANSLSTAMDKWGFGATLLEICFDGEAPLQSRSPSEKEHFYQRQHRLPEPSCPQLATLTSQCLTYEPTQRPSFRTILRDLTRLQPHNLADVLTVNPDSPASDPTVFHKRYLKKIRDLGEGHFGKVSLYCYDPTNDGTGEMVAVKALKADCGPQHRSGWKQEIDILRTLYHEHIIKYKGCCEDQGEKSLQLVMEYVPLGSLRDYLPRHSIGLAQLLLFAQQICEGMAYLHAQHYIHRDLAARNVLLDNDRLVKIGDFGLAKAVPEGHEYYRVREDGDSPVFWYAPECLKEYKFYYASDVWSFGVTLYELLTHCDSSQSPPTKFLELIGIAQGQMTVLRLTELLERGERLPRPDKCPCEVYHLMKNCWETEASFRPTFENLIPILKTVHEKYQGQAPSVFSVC

Q: `CO[C@@]1(c2cccc(-c3cn([C@H]4CC4(F)F)c4cnc(NC(N)=O)cc34)n2)CCOC1` [US20190276450, Example 1.3] was tested. Which EC50 did it give?
A: 2030 nM

Q: Which EC50 does the source give for `CNC(=O)Nc1cc2c(-c3cccc([C@]4(OC)CCOC4)n3)cn(C)c2cn1` [US20190276450, Example 1a.2] here?
A: 288 nM

Q: For `CO[C@]1(c2cccc(-c3cn(C)c4cnc(NC(N)=O)cc34)n2)CCOC1` [US20190276450, Example 1a], which EC50 is on record?
A: 468 nM

Q: How did the EC50 turn out when `CO[C@]1(c2cc(C)cc(-c3cn(C)c4cnc(NC(N)=O)cc34)n2)CCOC1` [US20190276450, Example 1b.3] was run?
A: 445 nM

Q: For `COCc1cc(-c2c[nH]c3cnc(NC(C)=O)cc23)nc([C@]2(OC)CCOC2)c1` [US20190276450, Example 2-NH], which EC50 is on record?
A: 310 nM

Q: How did the EC50 turn out when `CC[C@@]1(c2cccc(-c3cn(C)c4cnc(NC(C)=O)cc34)n2)CCOC1` [US20190276450, Example 2.3] was run?
A: 96 nM

Q: For `CC[C@]1(c2cccc(-c3cn(C)c4cnc(NC(C)=O)cc34)n2)CCOC1` [US20190276450, Example 2.3a], which EC50 is on record?
A: 2220 nM

Q: With `COCc1cc(-c2cn(C)c3cnc(NC(C)=O)cc23)nc([C@@]2(OC)CCOC2)c1` [US20190276450, Example 2.4] as the compound, how does the EC50 read?
A: 699 nM

Q: With `CO[C@]1(c2cc(C#N)cc(-c3cn(C)c4cnc(NC(C)=O)cc34)n2)CCOC1` [US20190276450, Example 2.5] as the compound, how does the EC50 read?
A: 694 nM

Q: `CO[C@@]1(c2cc(C#N)cc(-c3cn(C)c4cnc(NC(C)=O)cc34)n2)CCOC1` [US20190276450, Example 2.6] was tested. Which EC50 did it give?
A: 268 nM

Q: Which EC50 does the source give for `CO[C@]1(c2cc(C(F)F)cc(-c3cn(C)c4cnc(NC(C)=O)cc34)n2)CCOC1` [US20190276450, Example 2.7] here?
A: 254 nM

Q: How did the EC50 turn out when `CO[C@]1(c2cncc(-c3cn(C)c4cnc(NC(C)=O)cc34)n2)CCOC1` [US20190276450, Example 2.9] was run?
A: 716 nM

Q: How did the EC50 turn out when `CO[C@@]1(c2cncc(-c3cn(C)c4cnc(NC(C)=O)cc34)n2)CCOC1` [US20190276450, Example 2.10] was run?
A: 368 nM

Q: With `CO[C@]1(c2cc(C#N)cc(-c3cn([C@@H]4CC4(F)F)c4cnc(NC(C)=O)cc34)n2)CCOC1` [US20190276450, Example 2a.2] as the compound, how does the EC50 read?
A: 749 nM

Q: With `CO[C@]1(c2cc(C#N)cc(-c3cn([C@H]4CC4(F)F)c4cnc(NC(C)=O)cc34)n2)CCOC1` [US20190276450, Example 2a.4] as the compound, how does the EC50 read?
A: 2360 nM

Q: `CO[C@@]1(c2cc(C#N)cc(-c3cn([C@H]4CC4(F)F)c4cnc(NC(C)=O)cc34)n2)CCOC1` [US20190276450, Example 2a.5] was tested. Which EC50 did it give?
A: 1590 nM

Q: Which EC50 does the source give for `CC[C@]1(c2cccc(-c3cn(C)c4cnc(NC(N)=O)cc34)n2)CCOC1` [US20190276450, Example 3.3] here?
A: 388 nM

Q: How did the EC50 turn out when `CO[C@]1(c2cc(C(F)F)cc(-c3cn(C4COC4)c4cnc(NC(C)=O)cc34)n2)CCOC1` [US20190276450, Example 4.2] was run?
A: 616 nM

Q: For `COc1cc(-c2cn(C3COC3)c3cnc(NC(C)=O)cc23)nc([C@@]2(OC)CCOC2)c1` [US20190276450, Example 4.4], which EC50 is on record?
A: 353 nM

Q: With `COc1cc(-c2cn([C@@H]3CCOC3)c3cnc(NC(C)=O)cc23)nc([C@]2(OC)CCOC2)c1` [US20190276450, Example 5.2] as the compound, how does the EC50 read?
A: 156 nM

Q: With `COc1cc(-c2cn([C@@H]3CCOC3)c3cnc(NC(C)=O)cc23)nc([C@@]2(OC)CCOC2)c1` [US20190276450, Example 5.3] as the compound, how does the EC50 read?
A: 561 nM

Q: How did the EC50 turn out when `COc1cc(-c2cn(C3COC3)c3cnc(NC(C)=O)cc23)nc([C@]2(OC)CCOC2)c1` [US20190276450, Example 5] was run?
A: 111 nM

Q: With `CO[C@]1(c2cc(OCC3COC3)cc(-c3cn(C)c4cnc(NC(C)=O)cc34)n2)CCOC1` [US20190276450, Example 6.2] as the compound, how does the EC50 read?
A: 103 nM

Q: Which EC50 does the source give for `CO[C@@]1(c2cc(OCC#N)cc(-c3cn(C)c4cnc(NC(C)=O)cc34)n2)CCOC1` [US20190276450, Example 6.3] here?
A: 352 nM

Q: For `CO[C@@]1(c2cc(O[C@H]3C[C@@H](O)C3)cc(-c3cn(C)c4cnc(NC(C)=O)cc34)n2)CCOC1` [US20190276450, Example 11.2], which EC50 is on record?
A: 124 nM

Q: For `CO[C@]1(c2cc(O[C@H]3C[C@H](O)C3)cc(-c3cn(C)c4cnc(NC(C)=O)cc34)n2)CCOC1` [US20190276450, Example 11a], which EC50 is on record?
A: 496 nM

Q: For `CO[C@]1(c2cc(C#N)cc(-c3cn(C)c4cnc(NC(N)=O)cc34)n2)CCOC1` [US20190276450, Example 12.2], which EC50 is on record?
A: 551 nM

Q: With `COCc1cc(-c2cn(C)c3cnc(NC(N)=O)cc23)nc([C@@]2(OC)CCOC2)c1` [US20190276450, Example 12.4] as the compound, how does the EC50 read?
A: 319 nM

Q: With `CO[C@@]1(c2cc(C#N)cc(-c3cn([C@H]4CC4(F)F)c4cnc(NC(N)=O)cc34)n2)CCOC1` [US20190276450, Example 12a.2] as the compound, how does the EC50 read?
A: 578 nM

Q: `Cn1cc(-c2cccc(C3COC3)n2)c2cc(NC(N)=O)ncc21` [US20190276450, Example 13] was tested. Which EC50 did it give?
A: 492 nM

Q: `COc1cc(-c2cn(C)c3cnc(NC(C)=O)cc23)nc(C2(O)COC2)c1` [US20190276450, Example 14.2] was tested. Which EC50 did it give?
A: 673 nM

Q: Which EC50 does the source give for `CC(=O)Nc1cc2c(-c3cc(OC(C)C)cc(C4(O)COC4)n3)cn(C)c2cn1` [US20190276450, Example 14.3] here?
A: 339 nM

Q: With `NC(=O)Nc1cc2c(-c3cccc(C4(O)COC4)n3)cn([C@H]3CCOC3)c2cn1` [US20190276450, Example 15.2] as the compound, how does the EC50 read?
A: 1840 nM

Q: How did the EC50 turn out when `COC1(c2cccc(-c3c[nH]c4cnc(NC(C)=O)cc34)n2)CCOC1` (configuration not stated) [US20190276450, Example 16-NH] was run?
A: 3140 nM

Q: `CO[C@@]1(c2cccc(-c3cn(C)c4cnc(NC(C)=O)cc34)n2)CCOC1` [US20190276450, Example 16] was tested. Which EC50 did it give?
A: 310 nM

Q: How did the EC50 turn out when `CO[C@]1(c2cccc(-c3cn(C)c4cnc(NC(C)=O)cc34)n2)CCOC1` [US20190276450, Example 16a] was run?
A: 1590 nM

Q: For `CO[C@@]1(c2cccc(-c3c[nH]c4cnc(NC(C)=O)cc34)n2)CCOC1` [US20190276450, Example 17-NH], which EC50 is on record?
A: 1520 nM

Q: `CO[C@@]1(c2cc(C(F)F)cc(-c3cn([C@H]4C[C@@H](C#N)C4)c4cnc(NC(C)=O)cc34)n2)CCOC1` [US20190276450, Example 17.3] was tested. Which EC50 did it give?
A: 8 nM

Q: How did the EC50 turn out when `CO[C@@]1(c2cccc(-c3cn([C@H]4C[C@@H](C#N)C4)c4cnc(NC(C)=O)cc34)n2)CCOC1` [US20190276450, Example 17a] was run?
A: 477 nM

Q: With `CO[C@@]1(c2cccc(-c3cn(C4(C)COC4)c4cnc(NC(C)=O)cc34)n2)CCOC1` [US20190276450, Example 18] as the compound, how does the EC50 read?
A: 494 nM

Q: How did the EC50 turn out when `CO[C@@]1(c2cccc(-c3cn(C4(F)COC4)c4cnc(NC(C)=O)cc34)n2)CCOC1` [US20190276450, Example 18a] was run?
A: 537 nM

Q: `CO[C@@]1(c2cccc(-c3cn(C4(C)COC4)c4cnc(NC(N)=O)cc34)n2)CCOC1` [US20190276450, Example 19] was tested. Which EC50 did it give?
A: 198 nM

Q: Which EC50 does the source give for `COc1cc(-c2cn(C)c3cnc(NC(C)=O)cc23)nc([C@@]2(OC)CCOC2)c1` [US20190276450, Example 20a] here?
A: 906 nM

Q: `CC(=O)Nc1cc2c(-c3cccc([C@@]4(CO)CCOC4)n3)cn(C)c2cn1` [US20190276450, Example 21a] was tested. Which EC50 did it give?
A: 1310 nM

Q: With `COc1cc(-c2cn(C)c3cnc(NC(C)=O)cc23)nc([C@@]2(CO)CCOC2)c1` [US20190276450, Example 22.7] as the compound, how does the EC50 read?
A: 3100 nM

Q: Which EC50 does the source give for `COCCOc1cc(-c2cn(C)c3cnc(NC(C)=O)cc23)nc([C@@]2(CO)CCOC2)c1` [US20190276450, Example 22.9] here?
A: 1320 nM

Q: For `COCc1cc(-c2nn(C)c3cnc(NC(C)=O)cc23)nc([C@]2(OC)CCOC2)c1` [US20190276450, Example 23], which EC50 is on record?
A: 330 nM

target: Tyrosine-protein kinase JAK1 (Homo sapiens, UniProt P23458); experiment: JAK1 (PSTAT3 TF1) Alpha Screen Assay
Method: IL-6 is known to transduce its signal through IL-6 receptor via Jak1. Activity against Jak was therefore measured by determining inhibition of IL-6 induced phosphorylation of STAT3 in TF1 cells. From these tests, the EC50 (effective concentration for 50% maximal response) values were determined in 1 μM for the test compounds.

Sequence of Tyrosine-protein kinase JAK1 (P23458 whole entry): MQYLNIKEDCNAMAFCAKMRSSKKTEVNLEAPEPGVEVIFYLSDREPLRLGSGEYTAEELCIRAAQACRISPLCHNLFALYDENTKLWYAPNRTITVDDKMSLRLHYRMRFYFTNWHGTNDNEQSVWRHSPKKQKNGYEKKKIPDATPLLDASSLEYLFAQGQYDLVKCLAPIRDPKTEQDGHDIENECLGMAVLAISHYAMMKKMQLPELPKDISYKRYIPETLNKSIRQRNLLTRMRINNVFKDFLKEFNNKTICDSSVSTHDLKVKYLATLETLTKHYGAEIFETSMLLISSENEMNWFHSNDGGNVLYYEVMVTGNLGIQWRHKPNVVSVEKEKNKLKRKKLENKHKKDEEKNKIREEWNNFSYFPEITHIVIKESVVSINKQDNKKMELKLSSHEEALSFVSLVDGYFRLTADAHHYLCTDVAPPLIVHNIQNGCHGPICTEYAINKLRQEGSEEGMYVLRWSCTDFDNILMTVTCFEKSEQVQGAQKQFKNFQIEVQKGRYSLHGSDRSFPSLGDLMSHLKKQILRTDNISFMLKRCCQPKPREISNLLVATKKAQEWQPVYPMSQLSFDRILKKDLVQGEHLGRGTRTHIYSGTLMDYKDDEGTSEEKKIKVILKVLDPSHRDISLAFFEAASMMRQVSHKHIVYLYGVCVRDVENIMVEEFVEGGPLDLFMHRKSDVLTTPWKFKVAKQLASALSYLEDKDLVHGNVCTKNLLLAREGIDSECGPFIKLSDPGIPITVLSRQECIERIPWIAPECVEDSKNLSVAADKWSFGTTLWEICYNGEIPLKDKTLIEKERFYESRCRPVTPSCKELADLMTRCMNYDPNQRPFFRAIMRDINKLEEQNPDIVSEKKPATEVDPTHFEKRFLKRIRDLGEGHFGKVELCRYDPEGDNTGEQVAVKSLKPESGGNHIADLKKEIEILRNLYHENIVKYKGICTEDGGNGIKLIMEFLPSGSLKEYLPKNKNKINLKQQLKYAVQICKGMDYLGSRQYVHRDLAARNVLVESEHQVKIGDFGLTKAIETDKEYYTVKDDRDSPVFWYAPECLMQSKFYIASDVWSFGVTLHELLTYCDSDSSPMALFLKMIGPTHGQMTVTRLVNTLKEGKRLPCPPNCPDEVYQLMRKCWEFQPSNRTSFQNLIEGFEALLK

Q: Which EC50 does the source give for `CO[C@]1(c2cc(C)cc(-c3cn(C)c4cnc(NC(N)=O)cc34)n2)CCOC1` [US20190276450, Example 1b.3] here?
A: 4460 nM

Q: Which EC50 does the source give for `CC[C@@]1(c2cccc(-c3cn(C)c4cnc(NC(C)=O)cc34)n2)CCOC1` [US20190276450, Example 2.3] here?
A: 18000 nM

Q: With `COc1cc(-c2cn([C@@H]3CCOC3)c3cnc(NC(C)=O)cc23)nc([C@]2(OC)CCOC2)c1` [US20190276450, Example 5.2] as the compound, how does the EC50 read?
A: > 100000 nM

Q: For `COc1cc(-c2cn(C3COC3)c3cnc(NC(C)=O)cc23)nc([C@]2(OC)CCOC2)c1` [US20190276450, Example 5], which EC50 is on record?
A: > 100000 nM

Q: How did the EC50 turn out when `CO[C@]1(c2cc(OCC3COC3)cc(-c3cn(C)c4cnc(NC(C)=O)cc34)n2)CCOC1` [US20190276450, Example 6.2] was run?
A: 5200 nM

Reference: BindingDB's records for patent US20190276450 (Abbvie, 2019)
